Test results from patent US10131652B2, “Pyrimidinyloxy benzene derivatives as herbicides” (E. I. DU PONT DE NEMOURS AND COMPANY, priority 2014, dated 2018).
Where two headings read alike, the source gives them in different places.

What was measured:
Experiment in all cases: Test E pre-/postemergence plant response
Type in all cases: in vivo
[1] = tested on: blackgrass (Alopecurus myosuroides); conditions: scale 0 to 100, read-out: Plant response rating, Blackgrass; for pest or weed control at 16 g/ha: 16 g ai/ha; for pest or weed control at 31 g/ha: 31 g ai/ha; for pest or weed control at 62 g/ha: 62 g ai/ha; for pest or weed control at 125 g/ha: 125 g ai/ha
Procedure, shortened: (§1)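 Visual scores on a 0–100 scale (100 = complete control) were assigned against untreated controls 7–21 days after treatment in a controlled environment. Compounds, formulated with solvent plus surfactant, were applied to pre-emergence silt-loam sowings or to 1- to 4-leaf plants (2–18 cm) in potting medium.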

[2] = tested on: canarygrass (Phalaris minor); conditions: scale 0 to 100, read-out: Plant response rating, Canarygrass; for pest or weed control at 16 g/ha: 16 g ai/ha; for pest or weed control at 31 g/ha: 31 g ai/ha; for pest or weed control at 62 g/ha: 62 g ai/ha; for pest or weed control at 125 g/ha: 125 g ai/ha
Procedure, shortened: as §1

[3] = tested on: deadnettle (henbit deadnettle, Lamium amplexicaule); conditions: scale 0 to 100, read-out: Plant response rating, Deadnettle; for pest or weed control at 16 g/ha: 16 g ai/ha; for pest or weed control at 31 g/ha: 31 g ai/ha; for pest or weed control at 62 g/ha: 62 g ai/ha; for pest or weed control at 125 g/ha: 125 g ai/ha
Procedure, shortened: as §1

[4] = tested on: field poppy (Papaver rhoeas); conditions: scale 0 to 100, read-out: Plant response rating, Field Poppy; for pest or weed control at 16 g/ha: 16 g ai/ha; for pest or weed control at 31 g/ha: 31 g ai/ha; for pest or weed control at 62 g/ha: 62 g ai/ha; for pest or weed control at 125 g/ha: 125 g ai/ha
Procedure, shortened: as §1

[5] = tested on: field violet (Viola arvensis); conditions: scale 0 to 100, read-out: Plant response rating, Field Violet; for pest or weed control at 16 g/ha: 16 g ai/ha; for pest or weed control at 31 g/ha: 31 g ai/ha; for pest or weed control at 62 g/ha: 62 g ai/ha; for pest or weed control at 125 g/ha: 125 g ai/ha
Procedure, shortened: as §1

[6] = tested on: lambsquarters (Chenopodium album); conditions: scale 0 to 100, read-out: Plant response rating, Lambsquarters; for pest or weed control at 16 g/ha: 16 g ai/ha; for pest or weed control at 31 g/ha: 31 g ai/ha; for pest or weed control at 62 g/ha: 62 g ai/ha; for pest or weed control at 125 g/ha: 125 g ai/ha
Procedure, shortened: as §1

[7] = tested on: speedwell (bird's-eye speedwell, Veronica persica); conditions: scale 0 to 100, read-out: Plant response rating, Speedwell; for pest or weed control at 16 g/ha: 16 g ai/ha; for pest or weed control at 62 g/ha: 62 g ai/ha; for pest or weed control at 125 g/ha: 125 g ai/ha
Procedure, shortened: as §1

[8] = tested on: spring barley (Hordeum vulgare); conditions: for plant injury at 16 g/ha: 16 g ai/ha; for plant injury at 31 g/ha: 31 g ai/ha; for plant injury at 62 g/ha: 62 g ai/ha; for plant injury at 125 g/ha: 125 g ai/ha
Procedure, shortened: as §1

[9] = tested on: spring wheat (Triticum aestivum); conditions: scale 0 to 100, read-out: Plant response rating, Wheat, Spring; for plant injury at 16 g/ha: 16 g ai/ha; for plant injury at 62 g/ha: 62 g ai/ha; for plant injury at 125 g/ha: 125 g ai/ha
Procedure, shortened: as §1

wild oat (Avena fatua) = conditions: scale 0 to 100, read-out: Plant response rating, Oat, Wild; for pest or weed control at 16 g/ha: 16 g ai/ha; for pest or weed control at 31 g/ha: 31 g ai/ha; for pest or weed control at 62 g/ha: 62 g ai/ha; for pest or weed control at 125 g/ha: 125 g ai/ha
Procedure, shortened: as §1

[10] = tested on: winter wheat (Triticum aestivum); conditions: scale 0 to 100, read-out: Plant response rating, Wheat, Winter; for plant injury at 16 g/ha: 16 g ai/ha; for plant injury at 62 g/ha: 62 g ai/ha; for plant injury at 125 g/ha: 125 g ai/ha
Procedure, shortened: as §1

[11] = post-emergence, 31 g ai/ha, Postemergence
[12] = post-emergence, Postemergence, scale 0 to 100, read-out: Plant response rating, Barley, Spring
[13] = pre-emergence, Preemergence, scale 0 to 100, read-out: Plant response rating, Barley, Spring

Fc1cccc(Oc2ncc(Cl)cn2)c1-c1cc(C(F)F)on1 [Compound 55, 5-chloro-2-[2-[5-(difluoromethyl)-3-isoxazolyl]-3-fluorophenoxy]pyrimidine]
pest or weed control at 16 g/ha ([1]; post-emergence, Postemergence): 5%
pest or weed control at 31 g/ha ([1]; post-emergence, Postemergence): 10%
pest or weed control at 62 g/ha ([1]; post-emergence, Postemergence): 20%
pest or weed control at 125 g/ha ([1]; post-emergence, Postemergence): 40%
pest or weed control at 16 g/ha ([1]; pre-emergence, Preemergence): 0%
pest or weed control at 31 g/ha ([1]; pre-emergence, Preemergence): 15%
pest or weed control at 62 g/ha ([1]; pre-emergence, Preemergence): 60%
pest or weed control at 125 g/ha ([1]; pre-emergence, Preemergence): 100%
pest or weed control at 16 g/ha ([2]; post-emergence, Postemergence): 10%
pest or weed control at 31 g/ha ([2]; post-emergence, Postemergence): 20%
pest or weed control at 62 g/ha ([2]; post-emergence, Postemergence): 30%
pest or weed control at 125 g/ha ([2]; post-emergence, Postemergence): 30%
pest or weed control at 16 g/ha ([2]; pre-emergence, Preemergence): 10%
pest or weed control at 31 g/ha ([2]; pre-emergence, Preemergence): 20%
pest or weed control at 62 g/ha ([2]; pre-emergence, Preemergence): 100%
pest or weed control at 125 g/ha ([2]; pre-emergence, Preemergence): 100%
pest or weed control at 16 g/ha ([3]; post-emergence, Postemergence): 20%
pest or weed control at 31 g/ha ([3]; post-emergence, Postemergence): 50%
pest or weed control at 62 g/ha ([3]; post-emergence, Postemergence): 70%
pest or weed control at 125 g/ha ([3]; post-emergence, Postemergence): 80%
pest or weed control at 16 g/ha ([3]; pre-emergence, Preemergence): 0%
pest or weed control at 31 g/ha ([3]; pre-emergence, Preemergence): 0%
pest or weed control at 62 g/ha ([3]; pre-emergence, Preemergence): 0%
pest or weed control at 125 g/ha ([3]; pre-emergence, Preemergence): 0%
pest or weed control at 16 g/ha ([4]; post-emergence, Postemergence): 85%
pest or weed control at 31 g/ha ([4]; post-emergence, Postemergence): 90%
pest or weed control at 62 g/ha ([4]; post-emergence, Postemergence): 100%
pest or weed control at 125 g/ha ([4]; post-emergence, Postemergence): 95%
pest or weed control at 16 g/ha ([4]; pre-emergence, Preemergence): 100%
pest or weed control at 31 g/ha ([4]; pre-emergence, Preemergence): 100%
pest or weed control at 62 g/ha ([4]; pre-emergence, Preemergence): 100%
pest or weed control at 125 g/ha ([4]; pre-emergence, Preemergence): 100%
pest or weed control at 16 g/ha ([5]; post-emergence, Postemergence): 65%
pest or weed control at 31 g/ha ([5]; post-emergence, Postemergence): 70%
pest or weed control at 62 g/ha ([5]; post-emergence, Postemergence): 85%
pest or weed control at 125 g/ha ([5]; post-emergence, Postemergence): 90%
pest or weed control at 16 g/ha ([5]; pre-emergence, Preemergence): 70%
pest or weed control at 31 g/ha ([5]; pre-emergence, Preemergence): 80%
pest or weed control at 62 g/ha ([5]; pre-emergence, Preemergence): 100%
pest or weed control at 125 g/ha ([5]; pre-emergence, Preemergence): 100%
pest or weed control at 16 g/ha ([6]; post-emergence, Postemergence): 75%
pest or weed control at 31 g/ha ([6]; post-emergence, Postemergence): 80%
pest or weed control at 62 g/ha ([6]; post-emergence, Postemergence): 85%
pest or weed control at 125 g/ha ([6]; post-emergence, Postemergence): 90%
pest or weed control at 16 g/ha ([6]; pre-emergence, Preemergence): 95%
pest or weed control at 31 g/ha ([6]; pre-emergence, Preemergence): 100%
pest or weed control at 62 g/ha ([6]; pre-emergence, Preemergence): 100%
pest or weed control at 125 g/ha ([6]; pre-emergence, Preemergence): 100%
pest or weed control at 16 g/ha ([7]; post-emergence, Postemergence): 75%
pest or weed control at 31 g/ha [7, 11]: 80%
pest or weed control at 62 g/ha ([7]; post-emergence, Postemergence): 100%
pest or weed control at 125 g/ha ([7]; post-emergence, Postemergence): 100%
pest or weed control at 16 g/ha ([7]; pre-emergence, Preemergence): 100%
pest or weed control at 62 g/ha ([7]; pre-emergence, Preemergence): 100%
pest or weed control at 125 g/ha ([7]; pre-emergence, Preemergence): 100%
plant injury at 16 g/ha [8, 12]: 10%
plant injury at 31 g/ha [8, 12]: 10%
plant injury at 62 g/ha [8, 12]: 15%
plant injury at 125 g/ha ([8]; post-emergence, Postemergence, scale 0 to 100 (0 no effect, 100 complete control), read-out: Plant response rating, Barley, Spring): 20%
plant injury at 16 g/ha [8, 13]: 10%
plant injury at 31 g/ha [8, 13]: 10%
plant injury at 62 g/ha [8, 13]: 45%
plant injury at 125 g/ha [8, 13]: 50%
plant injury at 16 g/ha ([9]; post-emergence, Postemergence): 5%
plant injury at 31 g/ha [9, 11]: 15%
plant injury at 62 g/ha ([9]; post-emergence, Postemergence): 25%
plant injury at 125 g/ha ([9]; post-emergence, Postemergence): 45%
plant injury at 16 g/ha ([9]; pre-emergence, Preemergence): 15%
plant injury at 62 g/ha ([9]; pre-emergence, Preemergence): 15%
plant injury at 125 g/ha ([9]; pre-emergence, Preemergence): 35%
pest or weed control at 16 g/ha (wild oat (Avena fatua); post-emergence, Postemergence): 10%
pest or weed control at 31 g/ha (wild oat (Avena fatua); post-emergence, Postemergence): 15%
pest or weed control at 62 g/ha (wild oat (Avena fatua); post-emergence, Postemergence): 40%
pest or weed control at 125 g/ha (wild oat (Avena fatua); post-emergence, Postemergence): 50%
pest or weed control at 16 g/ha (wild oat (Avena fatua); pre-emergence, Preemergence): 0%
pest or weed control at 31 g/ha (wild oat (Avena fatua); pre-emergence, Preemergence): 15%
pest or weed control at 62 g/ha (wild oat (Avena fatua); pre-emergence, Preemergence): 35%
pest or weed control at 125 g/ha (wild oat (Avena fatua); pre-emergence, Preemergence): 45%
plant injury at 16 g/ha ([10]; post-emergence, Postemergence): 0%
plant injury at 31 g/ha [10, 11]: 15%
plant injury at 62 g/ha ([10]; post-emergence, Postemergence): 30%
plant injury at 125 g/ha ([10]; post-emergence, Postemergence): 40%
plant injury at 16 g/ha ([10]; pre-emergence, Preemergence): 5%
plant injury at 62 g/ha ([10]; pre-emergence, Preemergence): 10%
plant injury at 125 g/ha ([10]; pre-emergence, Preemergence): 20%
